Measured values as given in patent EP4772507A1, “AZAINDOLE COMPOUND AND MEDICAL DRUG” (Nippon Shinyaku Co., Ltd., priority 2023, dated 2025).

Columns and labels:
[1] = Central nervous system (CNS) penetration study in mice; format: in vivo; conditions: female, BALB/cCrSlc, mouse, ip, 30 mg/kg intraperitoneally, three hours later, cerebrum and plasma by LC-MS/MS, read-out: Brain-to-plasma concentration ratio (Kp value)
Description: To evaluate the central nervous system (CNS) penetration of a test substance, a central nervous system penetration study was conducted using mice.
Six-week-old female BALB/cCrSlc mice (Japan SLC) were used. The test substance suspended in 0.5% methylcellulose was intraperitoneally administered to mice at a dose of 30 mg/kg. Three hours later, blood was collected from the abdominal vena cava under isoflurane anesthesia, and plasma was obtained by centrifugation. After exsanguination from the abdominal vena cava, the cerebrum was collected.
The drug concentrations of the collected plasma and cerebrum were measured by LC-MS/MS. To determine the brain penetration of the drug, the brain-to-plasma concentration ratio (Kp value) was calculated.

OCI-Ly3 cell lines = assay: Proliferation inhibition test, ABC-DLBCL cell line OCI-Ly3; format: cell-based; conditions: Homo sapiens; OCI-Ly3 (ABC-DLBCL, NF-κB pathway-dependent); 96 hours; Cell Counting Kit-8; read-out: Proliferation inhibitory activity against OCI-Ly3 IC50
Description: (§1) In ABC-DLBCL cell lines, the NF-κB pathway is constitutively activated due to mutations in the B-cell receptor pathway. To evaluate the proliferation inhibitory activity associated with the MALT1 inhibitory activity of the test substance, a proliferation inhibition test was conducted using ABC-DLBCL cell lines.
(§2) The test substance was prepared at a concentration of 10 mM in dimethyl sulfoxide (DMSO) and further diluted with DMSO to each of concentrations of 3,000, 1,000, 300, 100, 30, and 10 µM. The solutions were further diluted 100-fold with IMDM medium containing 10% FBS to prepare test substance solutions.
(§3) OCI-Ly3 cell lines (ABC-DLBCL, NF-κB pathway-dependent) were cultured in IMDM containing 10% FBS, and SU-DHL-4 cell lines (GCB-DLBCL, NF-κB pathway-independent, used as a negative control) were cultured in RPMI-1640 containing 10% FBS. Into a 96-well plate, 2,000 cells of the OCI-Ly3 cell line and 4,000 cells of the SU-DHL-4 cell line were seeded in 100 µL per well, and 11 µL of the adjusted test substance solution was added thereto (final concentrations: 10,000, 3,000, 1,000, 300, 100, 30, and 10 nM). After 96 hours of incubation at 37°C in a 5% CO2 incubator, 10 µL of Cell Counting Kit-8 (Dojindo Laboratories) was added to each well. After 4 hours of incubation at 37°C, absorbance at 450 nm was detected using a microplate reader (EnVision, PerkinElmer).
(§4) Using the measurement data, non-linear regression analysis based on a 2-parameter logistic model was performed with Spotfire (PerkinElmer) to estimate IC50 values.

SU-DHL-4 cell lines = assay: Proliferation inhibition test, GCB-DLBCL cell line SU-DHL-4 (negative control line); format: cell-based; conditions: Homo sapiens; SU-DHL-4 (GCB-DLBCL, NF-κB pathway-independent, negative control); 96 hours; Cell Counting Kit-8; read-out: Proliferation inhibitory activity against SU-DHL-4 IC50
Description: as §1, §2, §3, §4

[2] = target: T1, C-terminal catalytic domain of MALT1 (amino acid residues 329-824) (Homo sapiens, UniProt Q9UDY8); assay: MALT1 protease inhibitory activity (enzyme activity inhibition assay, fluorogenic substrate); format: biochemical; conditions: substrate Ac-Leu-Arg-Ser-Arg-AMC 50 µM; 30°C for 2 hours; fluorescence
T1 construct: C-terminal catalytic domain of MALT1 (amino acid residues 329-824)
T1 sequence (Q9UDY8 329-824): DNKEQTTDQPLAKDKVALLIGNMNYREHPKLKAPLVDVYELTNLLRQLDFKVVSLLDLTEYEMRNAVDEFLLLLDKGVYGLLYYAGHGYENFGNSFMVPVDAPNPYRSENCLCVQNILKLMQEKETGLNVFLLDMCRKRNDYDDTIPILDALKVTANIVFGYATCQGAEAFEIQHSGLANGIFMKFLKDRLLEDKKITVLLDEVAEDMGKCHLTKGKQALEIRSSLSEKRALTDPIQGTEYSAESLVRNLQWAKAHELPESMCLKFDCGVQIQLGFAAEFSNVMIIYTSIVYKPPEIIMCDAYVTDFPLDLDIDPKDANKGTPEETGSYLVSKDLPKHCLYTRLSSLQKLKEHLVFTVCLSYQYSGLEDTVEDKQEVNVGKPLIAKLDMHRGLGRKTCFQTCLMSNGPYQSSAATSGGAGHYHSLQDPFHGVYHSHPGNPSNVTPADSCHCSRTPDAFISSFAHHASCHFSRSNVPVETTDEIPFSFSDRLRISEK
Description: To evaluate the enzyme inhibitory activity of a test substance against MALT1, an enzyme activity inhibition assay was conducted using the C-terminal catalytic domain of MALT1 (amino acid residues 329-824).
A test substance was prepared at a concentration of 10 mM in dimethyl sulfoxide (DMSO) and further diluted with DMSO to obtain final concentrations of 1000, 100, 10, 1, and 0.1 µM. The solutions were further diluted 25-fold with an assay buffer to prepare final test substance solutions. The composition of the assay buffer was 200 mM Tris/HCl HEPES (pH 7.5), 0.8 M Na citrate, 100 µM DTT, and 0.05% CHAPS.
The test substance solution was added to a 384-well black plate (#6007270, PerkinElmer) in an amount of 5 µL per well (n = 2; final concentrations of 10000, 1000, 100, 10, 1, and 0.1 nM), followed by the addition of 10 µL of MALT1 enzyme and finally 5 µL of a substrate solution (Ac-Leu-Arg-Ser-Arg-AMC, Peptide Institute, Inc.; final concentration in the reaction mixture: 50 µM), and after stirring, the mixture was allowed to react at 30°C for 2 hours. Fluorescence (excitation: 380 nm, emission: 460 nm) was detected using a microplate reader (EnVision, PerkinElmer).
Using the measurement data, non-linear regression analysis based on a 2-parameter logistic model was performed with Spotfire (PerkinElmer) to calculate IC50.

[3] = test system: HEK293/API2-MALT1/NF-κB reporter cells; assay: Inhibition of reporter activity in HEK293/API2-MALT1/NF-κB reporter cells; format: cell-based; conditions: Homo sapiens, 24 hours with test substance, One-glo luminescence
Description: The API2-MALT1 fusion protein, expressed in MALT lymphoma, is known to constitutively activate the NF-κB pathway. To evaluate the inhibitory effect of the test substance on the NF-κB pathway in cells, a reporter activity inhibition test was conducted using HEK293/API2-MALT1/NF-κB reporter cells.
The test substance was prepared at a concentration of 10 mM in dimethyl sulfoxide (DMSO) and further diluted with DMSO to each of concentrations of 1000, 300, 100, and 10 µM. The solutions were further diluted 100-fold with DMEM medium containing 10% FBS to prepare test substance solutions.
HEK293/API2-MALT1/NF-κB reporter cells and 293T/CMV reporter cells (used as a negative control) were cultured in DMEM medium containing 10% FBS. Into a 384-well plate (#781080, Greiner), 6,000 cells were seeded in 30 µL per well, and after culturing for 24 hours, 3.3 µL of the adjusted test substance solution was added thereto (final concentrations: 10,000, 1,000, 100, and 10 nM). After culturing for 24 hours at 37°C in a 5% CO2 incubator, 33 µL of One-glo (Promega) was added to each well. After a 5-minute incubation at room temperature, luminescence was detected using a microplate reader (EnVision, PerkinElmer).
Using the measurement data, non-linear regression analysis was performed with the SAS system (SAS Institute Inc.) to estimate IC50.

Row | SMILES | Kp at 3 h [1] | IC50 (OCI-Ly3 cell lines) | IC50 (SU-DHL-4 cell lines) | IC50 [2] | IC50 [3]
1 | C[C@@H]1CC(C(=O)c2cn(C)c3nc(-n4nccn4)c(Cl)cc23)C[C@@H](C)N1c1ncc(F)cc1I (stereo partly drawn) [Example 2, [5-chloro-1-methyl-6-(2H-1,2,3-triazol-2-yl)-1H-pyrrolo[2,3-b]pyridin-3-yl][(2R,6R)-1-(5-fluoro-3-iodopyridin-2-yl)-2,6-dimethylpiperidin-4-yl]methanone] | 1.2 | 300 nM | 7200 nM | 18 nM | 60 nM
2 | C[C@@H]1CC(C(=O)c2cn(CC#N)c3nc(-n4nccn4)c(Cl)cc23)C[C@@H](C)N1c1ncc(F)cc1I (stereo partly drawn) [Example 3, {5-chloro-3-[(2R,6R)-1-(5-fluoro-3-iodopyridin-2-yl)-2,6-dimethylpiperidin-4-carbonyl]-6-(2H-1,2,3-triazol-2-yl)-1H-pyrrolo[2,3-b]pyridin-1-yl}acetonitrile] | 0.73 | 580 nM | 6300 nM | 43 nM | 200 nM
3 | CC(=O)N1CC(n2cc(C(=O)C3C[C@@H](C)N(c4ncc(F)cc4I)[C@H](C)C3)c3cc(Cl)c(-n4nccn4)nc32)C1 (stereo partly drawn) [Example 5, 1-(3-{5-chloro-3-[(2R,6R)-1-(5-fluoro-3-iodopyridin-2-yl)-2,6-dimethylpiperidin-4-carbonyl]-6-(2H-1,2,3-triazol-2-yl)-1H-pyrrolo[2,3-b]pyridin-1-yl}azetidin-1-yl)ethan-1-one] | 0.12 | 310 nM | 3600 nM | 35 nM | 160 nM
4 | Cn1cc(C(=O)c2cnn(-c3cncc4c(F)cccc34)c2C(F)(F)F)c2cc(Cl)c(-n3nccn3)nc21 [Example 6, [5-chloro-1-methyl-6-(2H-1,2,3-triazol-2-yl)-1H-pyrrolo[2,3-b]pyridin-3-yl][1-(8-fluoroisoquinolin-4-yl)-5-(trifluoromethyl)-1H-pyrazol-4-yl]methanone] | 0.83 | 150 nM | 2300 nM | 13 nM | 75 nM
5 | C[C@@H]1CC(C(=O)c2cn(CCCO)c3nc(-c4ncccn4)c(Cl)cc23)C[C@@H](C)N1c1ncc(F)cc1I (stereo partly drawn) [Example 9, [5-chloro-1-(3-hydroxypropyl)-6-(pyrimidin-2-yl)-1H-pyrrolo[2,3-b]pyridin-3-yl][(2R,6R)-1-(5-fluoro-3-iodopyridin-2-yl)-2,6-dimethylpiperidin-4-yl]methanone] | 1.4 | 480 nM | 5100 nM | 69 nM | 140 nM

Second part, led by results:

Row | Kp at 3 h [1] | IC50 (OCI-Ly3 cell lines) | IC50 (SU-DHL-4 cell lines) | IC50 [2] | SMILES | IC50 [3]
6 | 0.52 | 130 nM | 3200 nM | 25 nM | CCn1cc(C(=O)c2cnn(-c3cncc4c(F)cccc34)c2C(F)(F)F)c2cc(Cl)c(-n3nccn3)nc21 [Example 7, [5-chloro-1-ethyl-6-(2H-1,2,3-triazol-2-yl)-1H-pyrrolo[2,3-b]pyridin-3-yl][1-(8-fluoroisoquinolin-4-yl)-5-(trifluoromethyl)-1H-pyrazol-4-yl]methanone] | 150 nM
7 | 0.52 | 110 nM | 2400 nM | 39 nM | CCCn1cc(C(=O)c2cnn(-c3cncc4c(F)cccc34)c2C(F)(F)F)c2cc(Cl)c(-n3nccn3)nc21 [Example 8, [5-chloro-1-propyl-6-(2H-1,2,3-triazol-2-yl)-1H-pyrrolo[2,3-b]pyridin-3-yl][1-(8-fluoroisoquinolin-4-yl)-5-(trifluoromethyl)-1H-pyrazol-4-yl]methanone] | 280 nM
8 | 1.7 | 440 nM | 6000 nM | 67 nM | C[C@@H]1CC(C(=O)c2cn(C3COC3)c3nc(-c4ncccn4)c(Cl)cc23)C[C@@H](C)N1c1ncc(F)cc1I (stereo partly drawn) [Example 10, [5-chloro-1-(oxetan-3-yl)-6-(pyrimidin-2-yl)-1H-pyrrolo[2,3-b]pyridin-3-yl][(2R,6R)-1-(5-fluoro-3-iodopyridin-2-yl)-2,6-dimethylpiperidin-4-yl]methanone] | 140 nM
9 | 3 | 290 nM | 8900 nM | 54 nM | C[C@@H]1CC(C(=O)c2cn(C)c3nc(-c4ncccn4)c(Cl)cc23)C[C@@H](C)N1c1ncc(F)cc1I (stereo partly drawn) [Example 11, [5-chloro-1-methyl-6-(pyrimidin-2-yl)-1H-pyrrolo[2,3-b]pyridin-3-yl][(2R,6R)-1-(5-fluoro-3-iodopyridin-2-yl)-2,6-dimethylpiperidin-4-yl]methanone] | 230 nM
10 | 0.66 | 210 nM | 1900 nM | 11 nM | Cn1cc(C(=O)c2cnn(-c3cncc4c(F)cccc34)c2C(F)(F)F)c2cc(Cl)c(-c3ncccn3)nc21 [Example 12, [5-chloro-1-methyl-6-(pyrimidin-2-yl)-1H-pyrrolo[2,3-b]pyridin-3-yl][1-(8-fluoroisoquinolin-4-yl)-5-(trifluoromethyl)-1H-pyrazol-4-yl]methanone] | 85 nM
